# Source: patent publication US20060051295A1, “Estrogen receptor interaction with a transcription factor” (priority 2002, published 2006)
# What was measured:
# IL-6 promoter = IL-6 promoter reporter in U-2 OS with ERα and NF-κB proteins / c/EBPβ; assay type: cell-based, human
# Procedure: To determine the role of functional ERα/c-Rel interactions in repression of IL-6 production by estrogens, we analysed the effect of various combinations of ERα and NF-κB proteins on IL-6 production using a reporter construct containing the promoter of the IL-6 gene.
# (§1) For transient transfections, cells were seeded in 6-well plates (2.10^5 cells/well). After two or three days the cells were transfected with reporter, expression vectors and β-galactosidase control vector. Two different experimental settings were used. For testing transrepression of IL-1β induced promoter activity, cells were transfected with 1 μg reporter construct, 1 μg expression vector (containing either ERα, ERβ or GR), and 0.25 μg of β-galactosidase control plasmid. For testing transrepression in combination with c-Rel or ReLA overexpression, cells were transfected with 1 μg reporter construct, 1 μg expression vector (containing either ERα, ERβ or GR) and 0.1 or 1.0 μg expression vector containing c-Rel or RelA and 0.25 μg of β-galactosidase control vector. Equivalent amounts of DNA were obtained by adding the appropriate expression vector that lacks an insert. Transient transfection was performed using lipofectin reagent (Life Technologies). […] The transfected cells were incubated overnight with test compounds prior to cell lysis. Measurement of luciferase and P-galactosidase activity were performed using respectively the luciferase assay system (Promega) and Galacto-light plus (Tropix) according to the manufacturers' protocols and measured on the Victor 1420 multilabel counter, Wallac.
# VCAM gene expression = assay: Rabbit atherogenic diet model, VCAM mRNA in aorta bow (RNase protection)
# ERα and c-Rel = assay: NF-κB-responsive reporters in COS cells transfected with ERα and c-Rel; assay type: cell-based, human; conditions: COS cells (B), ERα + cRel transfected
# Text: This example describes an assay, based on the E-selectin or VCAM promoter in combination with ERα in the T24/ECV cell line. Note that for the ER/NF-κB transrepression assay the ECV304 cell line was used, which was believed to be the only endothelial cell line available that was suitable for producing stable ERα expressing clones. At a later stage ATCC reported that the ECV304 cells were no endothelial cells but, instead, were T24 bladder carcinoma cells. In order to enhance the cytokine induction and amount of repression by estrogens, multiple copies of NF-κB responsive regions of the E-Selectin and VCAM promoters were used to construct new reporters named ELAM1a, ELAM2, ELAM-HMG, VCAM1-2, VCAM2, and VCAM3 (for reporter details see appendix 1).
# ECV304-ERα cells stably express ERα and endogenous c-Rel, whereas COS cells were transiently transfected with ERα, and, where indicated, c-Rel. Both cell types were co-transfected with the indicated E-selectin (ELAM) or VCAM promoter derived reporters.
# Human osteosarcoma U-2 OS (HTB-96), monkey kidney COS-1 (CRL-1650) and human ECV304 (CRL-1998) cells have been obtained from ATCC (American Type Culture collection). ECV304 cells were sold by ATCC as human endothelial cells, however at a later stage ATCC informed us that this cell line was in fact the human bladder epithelial carcinoma cell line T24. Therefore, these cells are called T24/ECV in this report. ECV304/T24(-ERα), U-2 OS and COS-7 cells were grown in a 1:1 mixture of phenol red free Dulbecco's modified medium (DMEM) and Ham's F12 medium (=M505), supplemented with 10% fetal calf serum (FCS). Experiments were performed in M505+10% FCTS (fetal calf serum treated with dextran-coated charcoal to deplete serum from steroid activity).
# The six NF-κB responsive reporters pHGL3-ELAM 1a, pHGL3-ELAM 2, pHGL3-ELAM HMG, pHGL3-VCAM 1-2, pHGL3-VCAM 2 and pHGL3-VCAM 3 (plasmid nr. 1921-1926 respectively) were constructed by ligating annealed primers in the Kpn I and Sac I sites of pHGL3-TATA. The primers were based on the NF-κB-RE sequences in the ELAM and the VCAM promoter (see Appendix 1). Several copies of the NF-κB-RE's were cloned in order the gain a higher absolute luciferase signal. The ELAM HMG construct contains a double repeat, while the other constructs contain three NF-κB -RE's. For primer and reporter sequences, see appendix 1.
# as §1
# IL-6 production = assay: IL-6 secretion by U-2OS cells stably expressing ERα (sandwich ELISA); assay type: cell-based, human; conditions: U-2OS-ERα, IL-1β 125 pg/ml + IFNγ 10 ng/ml
# Text: Estrogens maintain the balance between bone resorption and formation by inhibiting the production of cytokines by osteoblasts that stimulate osteoclast activity and thus bone resorption. We analysed the relevance of ER NF-κB transrepression on IL-6 production in more depth. When the pre-osteoblast cell line U-2 OS was stimulated with cytokines such as IL-1β, production of endogenous IL-6 protein is increased. However, when U-2OS cells are also exposed to IL-1β and estrogens, the increased production of IL-6 is repressed [Table 8].
# Numbers are luminescence in counts per sec reflecting IL-6 produced by the cells
# Secretion of endogenously produced IL-6 was measured by sandwich ELISA as outlined in Material and Methods.
# For studying repression of human IL-6 secreted by U-2 OS cells that stably overexpress ERα (U-2 OS-ERα cells) a standard sandwich ELISA was used (ELISA kit of R&D systems #DY206). Cells were plated in 24 or 96 wells plates in M505+dextran-coated charcoal stripped serum (i.e. 10% BCTS) and allowed to grow to 90% confluency.
# ELISA was performed according to the protocol of the manufacturer and as briefly described below. After overnight incubation of the cells with compounds in the appropriate concentration, the supernatants were transferred to 96 wells plates that had been coated overnight with anti-IL-6 capture antibody. Captured IL-6 was subsequently detected using a biotinylated anti-IL-6 detection antibody and Streptavidin-AP. Il-6 concentrations per well were subsequently quantified using the chemoluminescent substrate CSPD (Elisa-Light™, #EL100CY, Tropix), after which luminescence was determined in a Victor multilabel counter (Wallac).
smiles,measurement,setting,value
"C[C@]12CC[C@@H]3c4ccc(O)cc4CC[C@H]3[C@@H]1CC[C@@H]2O [Org E2, 17β-estradiol]","luciferase activity, IL-6 promoter reporter",IL-6 promoter; ERα + C/EBPβ,2585
same,"luciferase activity, IL-6 promoter reporter",IL-6 promoter; ERα + RelA,19401
same,"luciferase activity, IL-6 promoter reporter",IL-6 promoter; ERα + RelA + c/EBPβ,92837
same,"luciferase activity, IL-6 promoter reporter",IL-6 promoter; ERα + RelA + p50,8232
same,"luciferase activity, IL-6 promoter reporter",IL-6 promoter; ERα + c/EBPβ + p50,1724
same,"luciferase activity, IL-6 promoter reporter",IL-6 promoter; ERα + cRel,1807
same,"luciferase activity, IL-6 promoter reporter",IL-6 promoter; ERα + cRel + RelA,23381
same,"luciferase activity, IL-6 promoter reporter",IL-6 promoter; ERα + cRel + c/EBPβ,6459
same,"luciferase activity, IL-6 promoter reporter",IL-6 promoter; ERα + cRel + p50,1814
same,"luciferase activity, IL-6 promoter reporter",IL-6 promoter; ERα + p50,1447
same,"luciferase activity, IL-6 promoter reporter","IL-6 promoter; ERα, no NF-κB protein",1310
same,"VCAM mRNA level (RNase protection, divided by GAPDH signal)","VCAM gene expression; diet 2 weeks, 4 hours after 3 μg/kg s.c.",0.004949
same,"VCAM mRNA level (RNase protection, divided by GAPDH signal)","VCAM gene expression; diet 2 weeks, 12 hours after 3 μg/kg s.c.",0.01033
same,"VCAM mRNA level (RNase protection, divided by GAPDH signal)","VCAM gene expression; diet 4 weeks, 4 hours after 3 μg/kg s.c.",0.005097
same,"VCAM mRNA level (RNase protection, divided by GAPDH signal)","VCAM gene expression; diet 4 weeks, 12 hours after 3 μg/kg s.c.",0.006225
same,"VCAM mRNA level (RNase protection, divided by GAPDH signal)","VCAM gene expression; diet 8 weeks, 4 hours after 3 μg/kg s.c.",0.007292
same,"VCAM mRNA level (RNase protection, divided by GAPDH signal)","VCAM gene expression; diet 8 weeks, 12 hours after 3 μg/kg s.c.",0.009832
same,"VCAM mRNA level (RNase protection, divided by GAPDH signal)","VCAM gene expression; diet 18 weeks, 4 hours after 3 μg/kg s.c.",0.0345
same,"VCAM mRNA level (RNase protection, divided by GAPDH signal)","VCAM gene expression; diet 18 weeks, 12 hours after 3 μg/kg s.c.",0.02017
same,"luciferase activity, ELAM1a reporter",ERα and c-Rel,7390 cps
same,"luciferase activity, ELAM2 reporter",ERα and c-Rel,6223 cps
same,"luciferase activity, ELAM-HMG reporter",ERα and c-Rel,61571 cps
same,"luciferase activity, ELAM− reporter",ERα and c-Rel,90035 cps
same,"luciferase activity, VCAM1-2 reporter",ERα and c-Rel,9107 cps
same,"luciferase activity, VCAM2 reporter",ERα and c-Rel,4783 cps
same,"luciferase activity, VCAM3 reporter",ERα and c-Rel,10781 cps
same,"luciferase activity, VCAM reporter",ERα and c-Rel,51283 cps
same,Il-6 production (luminescence),IL-6 production; E2 0.001 nM,136039 counts per sec
same,Il-6 production (luminescence),IL-6 production; E2 0.01 nM,79230 counts per sec
same,Il-6 production (luminescence),IL-6 production; E2 0.1 nM,50375 counts per sec
same,Il-6 production (luminescence),IL-6 production; E2 1 nM,41070 counts per sec
